Test system: anesthetized open-chest dogs
Experiment: Hemodynamics of anesthetized open-chest dogs, intravenous infusion
Assay type: in vivo, mongrel dogs
Conditions: 0.15 mg/kg iv
Experimental: The animals were anesthetized by intravenous injection of 30 mg/kg sodium pentobarbital, tracheally intubated, and mechanically ventilated with positive air pressure. Left thoracotomy was performed through the fourth intercostal space and the heart was suspended in a pericardial cradle, the aortic root was isolated and a probe of blood flow meter (12 or 14 mm in diameter) was fixed to measure the aortic blood flow as a representation of cardiac output (CO), the circumflex branch of left coronary artery was isolated and a probe of blood flow meter (2 or 2.5 mm in diameter) was fixed to measure the coronary blood flow (CBF). A polyethylene catheter filled with heparin physiological saline was inserted through cardiac apex into the left ventricle to measure the left ventricular pressure (LVP) and left ventricular end-diastolic pressure (LVEDP), Peak positive and peak negative first derivatives of the LVP (+ LVdp/dt and − LVdp/dt) were calculated with the Acknowledge software. The systolic blood pressure (SBP), diastolic blood pressure (DBP) and mean arterial pressure (MAP) were measured by polyethylene catheter via the femoral artery, ECG □ was measured by a AC-601G ECG amplifier. The above-mentioned analog signal was input into a data acquisition workstation (MP100, BIOPAC Systems, USA) to a computer running Acknowledge (version 3.7.1).
After surgery, various indexes before administration were recorded until the indexes were stable, and then intravenous infusion administration was conducted. Thirty dogs were divided into five groups (six dogs in each group), the experiment groups were given 0.15, 0.3, 0.6 mg/kg of ASP-[…] respectively, the normal control group was given 1 ml/kg of solvent, and the positive control group was given 0.3 mg/kg of astragaloside IV. The delivery volumes were 15 ml for each dog was and the delivery velocity was 1 ml/min. The indexes were recorded at 5, 10, 15, 20, 30, 45, 60, 90 and 120 mins after drug administration. At the end of experiment, the hearts were excised and weighted. The myocardial blood flow for per hectogram (CF), coronary resistance (CR), cardiac index (CI), left ventricular work (LVW) and total peripheral resistance (TPR) were calculated according to the following formulae: CF=CBF×[…]/heart weight CR=MAP/CF CI=CO/0.11×(body weight)^2/3 LVW=CO×(MAP−5)×1.052×0.0136 TPR=MAP×79.92/CO
Data are expressed as mean±SD ( x±s), the paired t-test was used to compare the significance between before and after administration, the unpaired t-test was adopted for comparison between groups.

Compound: CC(C)(O)[C@@H]1CC[C@](C)([C@H]2[C@@H](O)C[C@@]3(C)C4C[C@H](OC5OC(CO)C(O)C(O)C5O)C5C(C)(C)[C@@H](O)CC[C@@]56C[C@@]46CC[C@]23C)O1 (stereo partly drawn) [CMG, Cycloastragenol-6-O-β-D-glucoside]
- LVEDP maximum decrease: 1.1±0.4 mmHg
- CF (5 min after administration): 57 ± 21.7 ml/min/100 g
- CF change vs before administration (5 min after administration): (−0.7 ± 3.6) ml/min/100 g
- CI (5 min after administration): 2.15 ± 0.65 L/min/m^2
- CI change vs before administration (5 min after administration): (0.07 ± 0.16) L/min/m^2
- CO (5 min after administration): 1.24 ± 0.38 L/min
- CO change vs before administration (5 min after administration): (0.04 ± 0.09) L/min
- CR (5 min after administration): 1.35 ± 0.42 mmHg/ml/min/100 g
- CR change vs before administration (5 min after administration): (−0.01 ± 0.08) mmHg/ml/min/100 g
- LVEDP (5 min after administration): 1.0 ± 2.3 mmHg
- LVEDP change vs before administration (5 min after administration): (−0.78 ± 0.61) mmHg
- LVP (5 min after administration): 105 ± 21 mmHg
- LVP change vs before administration (5 min after administration): (0.1 ± 3.4) mmHg
- LVW (5 min after administration): 1.15 ± 0.43 kg · m
- LVW change vs before administration (5 min after administration): (0.03 ± 0.17) kg · m
- TPR (5 min after administration): 4967 ± 2135 dyn · s/cm^5
- TPR change vs before administration (5 min after administration): (−183 ± 313) dyn · s/cm^5
- dp/dt (5 min after administration): 1205 ± 417 mmHg/s
- dp/dt change vs before administration (5 min after administration): (56 ± 94) mmHg/s
- −dp/dt (5 min after administration): −865 ± 286 mmHg/s
- −dp/dt change vs before administration (5 min after administration): (22 ± 65) mmHg/s
- CF (10 min after administration): 55.9 ± 21.6 ml/min/100 g
- CF change vs before administration (10 min after administration): (−1.8 ± 5.0) ml/min/100 g
- CI (10 min after administration): 2.26 ± 0.55 L/min/m^2
- CI change vs before administration (10 min after administration): (0.18 ± 0.20) L/min/m^2
- CO (10 min after administration): 1.31 ± 0.32 L/min
- CO change vs before administration (10 min after administration): (0.10 ± 0.12) L/min
- CR (10 min after administration): 1.36 ± 0.42 mmHg/ml/min/100 g
- CR change vs before administration (10 min after administration): (0.00 ± 0.11) mmHg/ml/min/100 g
- LVEDP (10 min after administration): 1.0 ± 2.3 mmHg
- LVEDP change vs before administration (10 min after administration): (−0.73 ± 0.49) mmHg
- LVP (10 min after administration): 103 ± 22 mmHg
- LVP change vs before administration (10 min after administration): (−1.5 ± 3.7) mmHg
- LVW (10 min after administration): 1.18 ± 0.34 kg · m
- LVW change vs before administration (10 min after administration): (0.06 ± 0.19) kg · m
- TPR (10 min after administration): 4568 ± 1871 dyn · s/cm^5
- TPR change vs before administration (10 min after administration): (−582 ± 652) dyn · s/cm^5
- dp/dt (10 min after administration): 1173 ± 407 mmHg/s
- dp/dt change vs before administration (10 min after administration): (23 ± 110) mmHg/s
- −dp/dt (10 min after administration): −883 ± 288 mmHg/s
- −dp/dt change vs before administration (10 min after administration): (5 ± 36) mmHg/s
- CF (15 min after administration): 55.9 ± 22.2 ml/min/100 g
- CF change vs before administration (15 min after administration): (−1.8 ± 5.8) ml/min/100 g
- CI (15 min after administration): 2.09 ± 0.45 L/min/m^2
- CI change vs before administration (15 min after administration): (0.01 ± 0.24) L/min/m^2
- CO (15 min after administration): 1.21 ± 0.26 L/min
- CO change vs before administration (15 min after administration): (0.00 ± 0.15) L/min
- CR (15 min after administration): 1.32 ± 0.38 mmHg/ml/min/100 g
- CR change vs before administration (15 min after administration): (−0.03 ± 0.14) mmHg/ml/min/100 g
- LVEDP (15 min after administration): 1.0 ± 2.3 mmHg
- LVEDP change vs before administration (15 min after administration): (−0.73 ± 0.60) mmHg
- LVP (15 min after administration): 103 ± 25 mmHg
- LVP change vs before administration (15 min after administration): (−2.0 ± 4.7) mmHg
- LVW (15 min after administration): 1.08 ± 0.31 kg · m
- LVW change vs before administration (15 min after administration): (−0.04 ± 0.19) kg · m
- TPR (15 min after administration): 4612 ± 1333 dyn · s/cm^5
- TPR change vs before administration (15 min after administration): (−538 ± 1075) dyn · s/cm^5
- dp/dt (15 min after administration): 1170 ± 449 mmHg/s
- dp/dt change vs before administration (15 min after administration): (20 ± 113) mmHg/s
- −dp/dt (15 min after administration): −875 ± 288 mmHg/s
- −dp/dt change vs before administration (15 min after administration): (13 ± 49) mmHg/s
- CF (20 min after administration): 54.3 ± 20.4 ml/min/100 g
- CF change vs before administration (20 min after administration): (−3.4 ± 4.4) ml/min/100 g
- CI (20 min after administration): 2.05 ± 0.45 L/min/m^2
- CI change vs before administration (20 min after administration): (−0.03 ± 0.26) L/min/m^2
- CO (20 min after administration): 1.19 ± 0.27 L/min
- CO change vs before administration (20 min after administration): (−0.02 ± 0.15) L/min
- CR (20 min after administration): 1.35 ± 0.39 mmHg/ml/min/100 g
- CR change vs before administration (20 min after administration): (0.00 ± 0.13) mmHg/ml/min/100 g
- LVEDP (20 min after administration): 1.2 ± 2.4 mmHg
- LVEDP change vs before administration (20 min after administration): (−0.62 ± 0.47) mmHg
- LVP (20 min after administration): 101 ± 21 mmHg
- LVP change vs before administration (20 min after administration): (−3.8 ± 5.1) mmHg

Source: patent US8835134B2, “Cycloastragenol monoglucoside, preparation, pharmaceutical composition and application thereof” (Tianjin Institute of Pharmaceutical Research, priority 2007, dated 2014)
